Our source for the IC95 values is patent US20100113421A1, “NON-NUCLEOSIDE REVERSE TRANSCRIPTASE INHIBITORS” (priority 2006, published 2010).

The subject of the test is HIV strain containing the Y181C mutation. Briefly: Spread assay, Y181C mutant strain. Type of test: cell-based. The conditions noted are these: Human immunodeficiency virus 1; spread assay, 10% FBS, Y181C mutant strain; read-out: CIC95. The protocol: Assays for the inhibition of acute HIV-1 infection of T-lymphoid cells (alternatively referred to herein as the “spread assay”) were conducted in accordance with Vacca, J. P. et al., Proc. Natl. Acad. Sci. USA 1994, 91: 4096. The assays (using 10% FBS) tested for inhibition of wild type HIV-1 and of HIV strains containing the Y181C or K103N mutation. […] (Note that the compound of Example 6 was tested only up to a 833 nM concentration and the CIC95 value was determined to be >833 nM. The compound of Example 78 was not tested in the Y1818C assay.) The compounds of Examples 1 to 119 (including Examples 70A and 70B) had CIC95 values of less than 1000 nanomolar in the assay employing the K103N mutant strain. In an analogous assay employing a mutant strain containing both the K103N and Y181C mutations, the compounds of Examples 70A, 70B and 78-115 had CIC95 values of less than 1000 nanomolar.
Turning to `Cc1c(C(=O)N(C)Cc2ccsc2)[nH]c(C(N)=O)c1S(=O)(=O)c1ccccc1` [Example 38, N,3-dimethyl-4-(phenylsulfonyl)-N-(3-thienylmethyl)-1H-pyrrole-2,5-dicarboxamide], the IC95 is less than 8 µM.

`Cc1c(C(=O)N(C)Cc2ccc3ncccc3c2Cl)[nH]c(C(N)=O)c1S(=O)(=O)c1cc(Cl)cc(Cl)c1` [Example 55, N-[(5-chloro-6-quinolinyl)methyl]-4-[(3,5-dichlorophenyl)sulfonyl]-N,3-dimethyl-1H-pyrrole-2,5-dicarboxamide]: the IC95 was less than 8 µM. The same measure for `CCc1c(C(=O)N(C)Cc2ccc(Cl)cc2Cl)[nH]c(C(N)=O)c1S(=O)(=O)c1ccccc1` [Example 59, N-(2,4-dichlorobenzyl)-3-ethyl-N-methyl-4-(phenylsulfonyl)-1H-pyrrole-2,5-dicarboxamide]: less than 8 µM; for `Cc1c(C(=O)N(C)Cc2ccncc2Cl)[nH]c(C(N)=O)c1S(=O)(=O)c1ccccc1` [Example 39, N-[(3-chloro-4-pyridinyl)methyl]-N,3-dimethyl-4-(phenylsulfonyl)-1H-pyrrole-2,5-dicarboxamide]: less than 8 µM. As for `Cc1c(C(=O)N(C)Cc2cc3cccnc3cc2Cl)[nH]c(C(N)=O)c1S(=O)(=O)c1cc(F)cc(F)c1` [Example 50, N-[(7-chloro-6-quinolinyl)methyl]-4-[(3,5-difluorophenyl)sulfonyl]-N,3-dimethyl-1H-pyrrole-2,5-dicarboxamide], the IC95 is less than 8 µM. On to `Cc1c(C(=O)N(C)Cc2ccccc2)[nH]c(C(N)=O)c1S(=O)(=O)c1cccc(C(F)(F)F)c1` [Example 22, N-benzyl-N,3-dimethyl-4-(3-trifluoromethylphenylsulfonyl)-1H-pyrrole-2,5-dicarboxamide], for which the IC95 is less than 8 µM. Next, `CCCCc1c(C(=O)N(C)Cc2ccc3ncccc3c2)[nH]c(C(N)=O)c1S(=O)(=O)c1cccc(Cl)c1` [Example 68, 3-butyl-4-[(3-chlorophenyl)sulfonyl]-N-methyl-N-(6-quinolinylmethyl)-1H-pyrrole-2,5-dicarboxamide]: less than 8 µM; `Cc1c(C(=O)N(C)Cc2ccc3ncccc3c2)[nH]c(C(N)=O)c1S(=O)(=O)c1cc(F)cc(Cl)c1` [Example 51, 4-[(3-chloro-5-fluorophenyl)sulfonyl]-N,3-dimethyl-N-(6-quinolinylmethyl)-1H-pyrrole-2,5-dicarboxamide]: less than 8 µM. With `Cc1c(C(=O)N(C)Cc2ccc3ncccc3c2Cl)[nH]c(C(N)=O)c1S(=O)(=O)c1ccccc1` [Example 42, N-[(5-Chloro-6-quinolinyl)methyl]-N,3-dimethyl-4-(phenylsulfonyl)-1H-pyrrole-2,5-dicarboxamide], the IC95 is less than 8 µM. Turning to `Cc1c(C(=O)N(C)Cc2cc3cccnc3cc2Cl)[nH]c(C(N)=O)c1S(=O)(=O)c1cc(Cl)cc(Cl)c1` [Example 56, N-[(7-chloro-6-quinolinyl)methyl]-4-[(3,5-dichlorophenyl)sulfonyl]-N,3-dimethyl-1H-pyrrole-2,5-dicarboxamide], the IC95 was less than 8 µM.

On to `Cc1c(C(=O)N(C)Cc2cccc(Cl)c2)[nH]c(C(N)=O)c1S(=O)(=O)c1ccccc1` [Example 10, N-(3-chlorobenzyl)-N,3-dimethyl-4-(phenylsulfonyl)-1H-pyrrole-2,5-dicarboxamide], for which the IC95 is less than 8 µM. `CC(C)c1c(C(=O)N(C)Cc2ccccc2)[nH]c(C(N)=O)c1S(=O)(=O)c1ccccc1` [Example 58, N-Benzyl-3-isopropyl-N-methyl-4-(phenylsulfonyl)-1H-pyrrole-2,5-dicarboxamide]: the IC95 was less than 8 µM. `CCCCc1c(C(=O)N(C)Cc2ccc3ncccc3c2)[nH]c(C(N)=O)c1S(=O)(=O)c1cccc(C)c1` [Example 67, 3-butyl-N-methyl-4-(3-methylphenylsulfonyl)-N-(6-quinolinylmethyl)-1H-pyrrole-2,5-dicarboxamide]: the IC95 was less than 8 µM. With `CCCCc1c(C(=O)N(C)Cc2ccc3ncccc3c2)[nH]c(C(N)=O)c1S(=O)(=O)c1ccccc1` [Example 66, 3-butyl-N-methyl-4-(phenylsulfonyl)-N-(6-quinolinylmethyl)-1H-pyrrole-2,5-dicarboxamide], the IC95 was less than 8 µM. Regarding `Cc1c(C(=O)N(C)Cc2ccc(Cl)cc2F)[nH]c(C(N)=O)c1S(=O)(=O)c1cccc(F)c1` [Example 18, N-(4-chloro-2-fluorobenzyl)-N,3-dimethyl-4-(3-fluorophenylsulfonyl)-1H-pyrrole-2,5-dicarboxamide], the IC95 is less than 8 µM. `CC(C)c1c(C(=O)N(C)Cc2ccc(Cl)cc2F)[nH]c(C(N)=O)c1S(=O)(=O)c1ccccc1` [Example 62, N-(4-chloro-2-fluorobenzyl)-3-isopropyl-N-methyl-4-(phenylsulfonyl)-1H-pyrrole-2,5-dicarboxamide]: the IC95 was less than 8 µM.

With `Cc1cc(C)cc(S(=O)(=O)c2c(C(N)=O)[nH]c(C(=O)N(C)Cc3ccccc3)c2C)c1` [Example 3, N-Benzyl-N,3-dimethyl-4-(3,5-dimethylphenylsulfonyl)-1H-pyrrole-2,5-dicarboxamide], the IC95 is less than 8 µM.

`Cc1cnccc1CNC(=O)c1[nH]c(C(=O)N(C)Cc2ccc(Cl)cc2Cl)c(C)c1S(=O)(=O)c1ccccc1` [Example 73, N-(2,4-dichlorobenzyl)-N,3-dimethyl-N′-[(3-methyl-4-pyridinyl)methyl]-4-(phenylsulfonyl)-1H-pyrrole-2,5-dicarboxamide]: the IC95 was less than 8 µM.

For the compound `Cc1c(C(=O)N(C)Cc2ccccc2Cl)[nH]c(C(=O)NCc2ccccn2)c1S(=O)(=O)N1CCCC1` [Example 117, N-(2-chlorobenzyl)-N,3-dimethyl-N′-(2-pyridinylmethyl)-4-(1-pyrrolidinylsulfonyl)-1H-pyrrole-2,5-dicarboxamide], the IC95 is less than 8 µM. Consider `Cc1c(C(=O)N(C)Cc2ccccc2Cl)[nH]c(C(N)=O)c1S(=O)(=O)N1CCCCC1` [Example 119, N-(2-chlorobenzyl)-N,3-dimethyl-4-(1-piperidinylsulfonyl)-1H-pyrrole-2,5-dicarboxamide], for which the IC95 was less than 8 µM. Next, `Cc1cc(C)cc(S(=O)(=O)c2c(C(N)=O)[nH]c(C(=O)N(C)Cc3ccc4ncccc4c3)c2C)c1` [Example 40, 4-[(3,5-Dimethylphenyl)sulfonyl]-N,3-dimethyl-N-(6-quinolinylmethyl)-1H-pyrrole-2,5-dicarboxamide]: less than 8 µM; `Cc1c(C(=O)N(C)Cc2ccc(Br)cc2)[nH]c(C(N)=O)c1S(=O)(=O)c1ccccc1` [Example 11, N-(4-bromobenzyl)-N,3-dimethyl-4-(phenylsulfonyl)-1H-pyrrole-2,5-dicarboxamide]: less than 8 µM. In the case of `Cc1c(C(=O)N(C)Cc2ccccc2Cl)[nH]c(C(N)=O)c1S(=O)(=O)c1cccc(F)c1` [Example 17, N-(2-chlorobenzyl)-N,3-dimethyl-4-(3-fluorophenylsulfonyl)-1H-pyrrole-2,5-dicarboxamide], the IC95 is less than 8 µM. For `CC(C)c1c(C(=O)N(C)Cc2ccccc2F)[nH]c(C(N)=O)c1S(=O)(=O)c1ccccc1` [Example 61, N-(2-fluorobenzyl)-3-isopropyl-N-methyl-4-(phenylsulfonyl)-1H-pyrrole-2,5-dicarboxamide], the IC95 was less than 8 µM.

For `Cc1c(C(=O)N(C)Cc2ccccc2F)[nH]c(C(N)=O)c1S(=O)(=O)c1cc(F)cc(Cl)c1` [Example 29, N-(2-fluorobenzyl)-N,3-dimethyl-4-(3-chloro-5-fluorophenylsulfonyl)-1H-pyrrole-2,5-dicarboxamide], the IC95 is less than 8 µM. Next, `Cc1c(C(=O)N(C)Cc2ccccc2F)[nH]c(C(N)=O)c1S(=O)(=O)c1cccc(F)c1` [Example 16, N-(2-fluorobenzyl)-N,3-dimethyl-4-(3-fluorophenylsulfonyl)-1H-pyrrole-2,5-dicarboxamide]: less than 8 µM; `CCCCc1c(C(=O)N(C)Cc2ccc3ncccc3c2)[nH]c(C(N)=O)c1S(=O)(=O)c1cc(C)cc(C)c1` [Example 69, 3-butyl-4-[(3,5-dimethylphenyl)sulfonyl]-N-methyl-N-(6-quinolinylmethyl)-1H-pyrrole-2,5-dicarboxamide]: less than 8 µM; `Cc1c(C(=O)N(C)Cc2ccccc2Br)[nH]c(C(N)=O)c1S(=O)(=O)c1ccccc1` [Example 9, N-(2-bromobenzyl)-N,3-dimethyl-4-(phenylsulfonyl)-1H-pyrrole-2,5-dicarboxamide]: less than 8 µM. The same measure for `Cc1c(C(=O)N(C)Cc2ccccc2)[nH]c(C(N)=O)c1S(=O)(=O)c1cc(F)cc(Cl)c1` [Example 28, N-benzyl-N,3-dimethyl-4-(3-chloro-5-fluorophenylsulfonyl)-1H-pyrrole-2,5-dicarboxamide]: less than 8 µM.

As to `CCCCc1c(C(=O)N(C)Cc2ccc3ncccc3c2)[nH]c(C(N)=O)c1S(=O)(=O)c1cc(Cl)cc(Cl)c1` [Example 70, 3-butyl-4-[(3,5-dichlorophenyl)sulfonyl]-N-methyl-N-(6-quinolinylmethyl)-1H-pyrrole-2,5-dicarboxamide], the IC95 was less than 8 µM. In the case of `Cc1c(C(=O)N(C)Cc2cc3cccnc3cc2Cl)[nH]c(C(N)=O)c1S(=O)(=O)c1ccccc1` [Example 41, N-[(7-Chloro-6-quinolinyl)methyl]-N,3-dimethyl-4-(phenylsulfonyl)-1H-pyrrole-2,5-dicarboxamide], the IC95 was less than 8 µM. Take `Cc1c(C(=O)N(C)Cc2ccc3ncccc3c2Cl)[nH]c(C(N)=O)c1S(=O)(=O)c1cc(F)cc(Cl)c1` [Example 52, 4-[(3-chloro-5-fluorophenyl)sulfonyl]-N-[(5-chloro-6-quinolinyl)methyl]-N,3-dimethyl-1H-pyrrole-2,5-dicarboxamide]: the IC95 was less than 8 µM.
